According to EP1285918A1, “C7 Ester substituted taxanes as antitumor agents” (Florida State University Research Foundation, Inc., priority 2001, dated 2003):
Like-named read-outs stand apart in the source and are kept apart here.

Assays:
[1] = system: MX-1 Human Breast Carcinoma Xenograft; assay: In vivo evaluation of oral administration of antitumor compounds against MX-1 human breast carcinoma xenograft (Example 25); settings: for Maximum Weight Loss (Day) / Partial Response / Stable Disease / Toxic Deaths / Mean Day of Survival (n): 6 mice/group; for Maximum Weight Loss (Day): on Day 5; for Partial Response / Stable Disease / Toxic Deaths / Mean Day of Survival (n): study end Day 63; for Mean Day of Survival (n): days until tumor reached 1.5 g; for survival compared to vehicle control mice: MX-1, single oral bolus, doses of Table 22, Day 63; for Complete Response: po, 1512 h
Excerpt: This study investigated the efficacy of various antitumor compounds when administered orally against the MX-1 human breast carcinoma xenograft.
(§1) The study was terminated on Day 63.

HCT116 = assay: In Vitro cytotoxicity measured by the cell colony formation assay; format: cell-based; settings: Homo sapiens, HCT-116; 72 h drug incubation, colonies counted after 7 days; concentration producing 50% inhibition of colony formation; read-out: IN VITRO ID 50 (nm) HCT116
Protocol: In Vitro cytotoxicity measured by the cell colony formation assay
Four hundred cells (HCT116) were plated in 60 mm Petri dishes containing 2.7 mL of medium (modified McCoy's 5a medium containing 10% fetal bovine serum and 100 units/mL penicillin and […] streptomycin). The cells were incubated in a CO2 incubator at 37 °C for 5 h for attachment to the bottom of Petri dishes. The compounds identified in Example 2 were made up fresh in medium at ten times the final concentration, and then 0.3 mL of this stock solution was added to the 2.7 mL of medium in the dish. The cells were then incubated with drugs for 72 h at 37 ° C. At the end of incubation the drug-containing media were decanted, the dishes were rinsed with 4 mL of Hank's Balance Salt Solution (HBSS), 5 mL of fresh medium was added, and the dishes were returned to the incubator for colony formation. The cell colonies were counted using a colony counter after incubation for 7 days. Cell survival was calculated and the values of ID50 (the drug concentration producing 50% inhibition of colony formation) were determined for each tested compound.

blood cell populations = assay: Effect of oral treatment on blood cell populations, body weight and tumor weight in MX-1 bearing mice (Example 25, Table 23); format: in vivo, nu/nu mice; settings: for Weight: tumor weight at Day 18
Protocol: as §1
In addition to survival and tumor regression responses, the effect of treatment on blood cell populations was assessed. The major effect of these antitumor compounds on blood cell populations was a marked reduction in the neutrophil cell number. As well, monocyte depletion correlated fairly well with neutrophil reduction for each antitumor compound. […] There was a correlation between antitumor activity and reduced neutrophil count. In general, toxicity (as determined by neutrophil depletion) and weight loss correlated with efficacy. Importantly, the toxicities observed with the very efficacious antitumor compounds were manageable and reversible; neutrophil count and body weight rebounded from their low points in just a few days. Table 23 summarizes the weight reduction, neutrophil and monocyte measurements on Day 4, with tumor weight reduction calculated at Day 18: Table 23

[2] = system: DU 145 Human Prostate Carcinoma Xenografts; settings: DU145, i.v. qd x 1 (mg/kg: Taxol 24, 1351 107.6, 1393 72.6, 1401 107.6, 1418 107.6, 1424 195.1)
Protocol: (§2) Other antitumor compounds were similarly formulated. […] The dosing volume was 0.3 ml per 20 g mouse.
Male NCr-nude mice (implanted subcutaneously with 1 mm^3 DU145 prostate carcinoma fragments in the flank) were sorted into treatment groups of five mice each. […] Dosing was initiated on Day 1. The antitumor compounds were given i.v. at an estimated maximum tolerated dose (MTD) appropriate for each agent on a qd x 1 schedule (single administration of compound). […] The vehicle was administered i.v. to control mice in Group 1 on the qd x 1 schedule. The study was terminated on Day 91. Treatment groups are detailed in Table 5.
(§3) The mean days of survival is the number of days after which a neoplasm reached a size of 1.5 g and the animal was euthanized. A complete response is obtained if the tumor is not palpable at the end of the study. A partial response is obtained if the tumor shrinks to a size smaller than its size on Day 1 of the study. […]

[3] = system: A375 Human Melanoma Xenografts; settings: A375, i.v. qd x 1 (mg/kg: Taxol 24, 1351 107.6, 1393 72.6, 1401 107.6, 1418 107.6, 1424 195.1, Taxotere 70)
Protocol: as §2
Female NCr-nude mice (implanted subcutaneously with 1 mm^3 A375 melanoma in the flank) were sorted into treatment groups of six mice each, except for the Taxotere group having seven mice each. […] Dosing was initiated on Day 1. The antitumor compounds were given i.v. at an estimated maximum tolerated dose (MTD) appropriate for each agent on a qd x 1 schedule (single administration of compound). […] Taxotere was given i.v. on a qd x 1 schedule at a dose of 70 mg/kg. The vehicle was administered i.v. to control mice in Group 1 on the qd x 1 schedule. Treatment groups are detailed in Table 9. The study was terminated on Day 60.
as §3, with “The results are summarized in Table 10 and include mean days of survival (MDS), number of toxic deaths, number of survivors, number of complete or partial responses, and number with stable disease. The” for “The”, “tumor” for “neoplasm”, “2.0” for “1.5”

[4] = system: VM46 Human Colon Carcinoma Xenografts; settings: 6 mice/group
Protocol: (§4) Other antitumor compounds were similarly formulated. […] The dosing volume was 0.3 mL per 20 g mouse.
(§5) Female NCr-nude mice (6-8 weeks of age, implanted subcutaneously with 1 mm^3 VM46 colon carcinoma fragments in the flank) were sorted into treatment groups of six mice each. […] Dosing was initiated on Day 1. The antitumor compounds were given i.v. at an estimated maximum tolerated dose (MTD) appropriate for each agent on a qd x 1 schedule (single administration of compound). […] Taxotere was given i.v. at a dose of 70 mg/kg on a qd x 1 schedule. The vehicle was given i.v. to control mice in Group 1 in each test on Day 1 (qd x 1) schedule. Treatment groups are detailed in Table 13. The VM46 study ended on Day 64.
as §3, with “The results are summarized in table 14 and include mean days of survival (MDS), number of toxic deaths, number of survivors, number of complete or partial responses, and number with stable disease. The” for “The”

[5] = system: Panc-1 Human Pancreatic Carcinoma Xenografts; settings: i.v. qd x 1 at estimated MTD; 6 mice/group; study end Day 63
Protocol: as §4
as §5, with “Panc-1 pancreatic” for “VM46 colon”, “12.” for “13.”, “The” for “The VM46”, “was terminated” for “ended”, “63.” for “64.”
The mean days of survival is the number of days after which a neoplasm reached a size of 1.5 g and the animal was euthanized. A complete response is obtained if the tumor is not palpable at the end of the study. A partial response is obtained if the tumor shrinks to a size smaller than its size on Day 1 of the study.

[6] = Day 4, 160 mg/kg single oral bolus
[7] = Day 4, 233 mg/kg single oral bolus
[8] = tumor score 1 to 10, group mean
[9] = 195.1 mg/kg i.v. qd x 1, study end Day 64

For CCC(=O)OC1CC2OCC2(OC(C)=O)C2C(OC(=O)c3ccccc3)C3(O)CC(OC(=O)C(O)C(NC(=O)c4ccccc4)c4ccco4)C(C)=C(C(O)C(=O)C12C)C3(C)C (stereo not shown) [Compound 4017], the “Maximum Weight Loss (Day)” value ([1]; 160 mg/kg single oral bolus) was -4.3% (5), the “Partial Response” value ([1]; 160 mg/kg single oral bolus) was 0 and the “Stable Disease” value ([1]; 160 mg/kg single oral bolus) was 0. For the same compound, the “Toxic Deaths” value ([1]; 160 mg/kg single oral bolus) was 1, the “Mean Day of Survival (n)” value ([1]; 160 mg/kg single oral bolus) was 39.4 ± 4.6 (5) days and the “survival compared to vehicle control mice” value [1] was “significant survival extensions”. The “Complete Response” value ([1]; 160 mg/kg) was 0, the IC50 (HCT116) was < 10 nM and the “Monocytes (K/µL)” value (blood cell populations; [6]) was 0.073 K/µL. For the same compound, the “Neutrophils (K/µL)” value (blood cell populations; [6]) was 0.228 K/µL, the “% Reduction” value (blood cell populations; reduction of monocytes, Day 4, 160 mg/kg single oral bolus) was 24.0% and the “% Reduction” value (blood cell populations; reduction of neutrophils, Day 4, 160 mg/kg single oral bolus) was 75.0%. For the same compound, the “% Reduction” value (blood cell populations; reduction of tumor weight at Day 18, 160 mg/kg single oral bolus) was 70.5% and the “Weight” value (blood cell populations; 160 mg/kg single oral bolus) was 256.5 mg.
In the case of CCC(=O)O[C@H]1C[C@H]2OC[C@@]2(OC(C)=O)[C@H]2[C@H](OC(=O)c3ccccc3)[C@]3(O)C[C@H](OC(=O)[C@H](O)[C@@H](NC(=O)OC(C)(C)C)c4ccccc4)C(C)=C([C@@H](O)C(=O)[C@]12C)C3(C)C [Compound 1458], the “Maximum Weight Loss (Day)” value ([1]; 233 mg/kg single oral bolus) is reported as -5.8% (5), the “Partial Response” value ([1]; 233 mg/kg single oral bolus) is reported as 0 and the “Stable Disease” value ([1]; 233 mg/kg single oral bolus) is reported as 0. For the same compound, the “Toxic Deaths” value ([1]; 233 mg/kg single oral bolus) was 0, the “Mean Day of Survival (n)” value ([1]; 233 mg/kg single oral bolus) was 46.0 ± 1.6 (5) days and the “survival compared to vehicle control mice” value [1] was “significant survival extensions”. For the same compound, the “Complete Response” value ([1]; 233 mg/kg) was 1, the IC50 (HCT116) was < 10 nM and the “Monocytes (K/µL)” value (blood cell populations; [7]) was 0.057 K/µL. For the same compound, the “Neutrophils (K/µL)” value (blood cell populations; [7]) was 0.232 K/µL, the “% Reduction” value (blood cell populations; reduction of monocytes, Day 4, 233 mg/kg single oral bolus) was 40.6% and the “% Reduction” value (blood cell populations; reduction of neutrophils, Day 4, 233 mg/kg single oral bolus) was 74.5%. For the same compound, the “% Reduction” value (blood cell populations; reduction of tumor weight at Day 18, 233 mg/kg single oral bolus) was 97.5% and the “Weight” value (blood cell populations; 233 mg/kg single oral bolus) was 21.8 mg.
In the case of CCC(=O)O[C@H]1C[C@H]2OC[C@@]2(OC(C)=O)[C@H]2[C@H](OC(=O)c3ccccc3)[C@]3(O)C[C@H](OC(=O)[C@H](O)[C@@H](NC(=O)OC(C)(C)C)c4ccsc4)C(C)=C([C@@H](O)C(=O)[C@]12C)C3(C)C [Compound 1424], the “MDS (n)” value ([2]; 5 mice/group, 1.5 g cut-off, Day 91) is reported as 76.0 ± 5.4 (4) days, the “Complete Response” value ([2]; 5 mice/group, Day 91) is reported as 0 and the “Partial Response” value ([2]; 5 mice/group, Day 91) is reported as 1. The “Stable Disease” value ([2]; 5 mice/group, Day 91) was 0, the Survivors ([2]; 5 mice/group, Day 91) was 1 and the “Toxic Deaths” value ([2]; 5 mice/group, Day 91) was 0. For the same compound, the “Mean Score” value [2, 8] was 3.6 ± 1.1, the “MDS (n)” value ([3]; 2.0 g cut-off, Day 60) was 30.7 ± 1.1 (2) days and the “Complete Response” value ([3]; Day 60) was 0. The “Partial Response” value ([3]; Day 60) was 0, the “Stable Disease” value ([3]; Day 60) was 0 and the Survivors ([3]; Day 60) was 0. For the same compound, the “Mean Score” value [3, 8] was 1 ± 0.6, the “Complete Response” value [4, 9] was 0 and the “Mean Score” value [4, 9] was 0.8 ± 0.4. For the same compound, the “Partial Response” value [4, 9] was 0, the “Stable Disease” value [4, 9] was 0 and the Survivors [4, 9] was 0. The “Toxic Deaths” value [4, 9] was 3, the “MDS (n)” value ([4]; 195.1 mg/kg i.v. qd x 1, study end Day 64, days until tumor reached 1.5 g) was 45.4 ± 8.1 (3) days and the Toxic Deaths ([4]; VM46, i.v. qd x 1 at estimated MTD) was “three”. For the same compound, the “Complete Response” value [5] was 0, the “Mean Score” value [5] was 0 ± 0 and the “Partial Response” value [5] was 0. The “Stable Disease” value [5] was 0, the Survivors [5] was 0 and the “Toxic Deaths” value [5] was 6.
